Measurements reported in patent US20100210611A1, “COMBINATION THERAPY” (priority 2007, published 2010).
Values joined by “and” are separate entries in the source; they are usually repeats but may differ in a detail not shown here. Equal values may be shown once.

Experiments:
Assay type in all cases: physicochemical
[1] = Blend uniformity (individual capsule assay); details: HPLC, Mean ± RSD
Experimental: To assess blend uniformity, capsules from each blend were opened and rinsed with methanol. The solution was sonicated for 5 minutes at room temperature, centrifuged at 3000 rpm for 15 minutes then assayed using a UV-VIS spectrophotometer at a wavelength of 346 nm. […]
To assess blend uniformity, the blend was sampled randomly from the glass vial. The drugs were extracted analogous to that described in section Blend Uniformity for Example 1. However, the content of montelukast acid and mometasone furoate were analyzed by High Performance Liquid Chromatography (HPLC) employing a phenyl column with a controlled temperature of 50° C., a mixture of water containing 0.2% trifluoroacetic acid (TFA) and acetonitrile containing 0.2% TFA (53:47) as the mobile phase at a flow rate 2 ml/min and UV-detection at 248 nm.
The blend uniformity was assessed in a manner analogous to that described in the Blend Uniformity section in Example 4, except the content of montelukast acid and ciclesonide were analyzed by High Performance Liquid Chromatography (HPLC) employing a phenyl column with a controlled temperature of 50° C., a mixture of water containing 0.2% trifluoroacetic acid (TFA) and acetonitrile containing 0.2% TFA (40:60) at a flow rate 2 ml/min and UV-detection at 248 nm.

[2] = Dose uniformity, Dosage Unit Sampling Apparatus (DUSA), USP <601>; details: Spinhaler; for Total recovered / amount in Device + Capsule: listed as MON; for amount in Device + Capsule: nominal 1000 μg MON, 400 μg MOM
Experimental: Dose uniformity was determined using Apparatus B (Dosage Unit Sampling Apparatus—DUSA) at a flow rate of 100 L/min (test described in United States Pharmacopoeia (USP) 27 Chapter <601>). The USP recommends selecting a flow rate that creates a pressure drop of 4 kPa across the inhaler. With the Spinhaler, a 4 kPa pressure drop could not be achieved even at the maximum flow rate of 100 L/min. Based on the recommendations of Byron, et al., a flow rate of 100 L/min was selected since the Spinhaler is a low resistance device. See Michael Hindle and Peter R. Byron, “Dose emissions from marketed dry powder inhalers”, International Journal of Pharmaceutics 116 (1995) 169-177. The test was run for 2.4 seconds in order to pull 4 L of air. After a shot had been delivered, all pieces of the DUSA including the mouthpiece adapter were rinsed with solvent. To determine the amount of drug retained in the inhaler, all pieces of the inhaler were rinsed with solvent including the interior of the capsule. The samples were then assayed using the UV-Vis spectrophotometer.
Shot weight was obtained by measuring the weight loss due to the actuation of the device. The device was tared, a “shot” was wasted in the DUSA and the device was re-weighed to obtain the delivered shot weight. Dose and shot weight were deemed acceptable if they were within 75% to 125% of the theoretical values (USP <601>).
Dose Uniformity (DU) was performed according to USP Chapter <601> by using DUSA Apparatus B with the Spinhaler® device which is analogous to that described in section Dose Uniformity for Example 1. However, the HPLC was used to analyze the content of the drugs as described in the Blend Uniformity in this example.
Dose Uniformity was performed according to USP Chapter <601> by using DUSA Apparatus B with the Spinhaler® device and in a manner analogous to that described in section Dose Uniformity in Example 4, except the HPLC was used to analyze the content of the drugs as described in the Blend Uniformity in this example.

[3] = Aerodynamic particle size distribution, Andersen cascade impaction (ACI); details: Spinhaler; for MMAD: cutoff diameter based on airflow rate of 28.3 L/min; for amount in ACI: including mouthpiece adapter
From the text: The Andersen cascade impaction (ACI) (Apparatus 3) was the device used to determine the aerodynamic size distribution. The impaction provided in vitro measurements of the fraction of the aerosol that has the potential to reach the alveolar region of the lung. This value is represented by the portion of particles detected below plate 2. The impaction was operated at the flow rate and test time according to the method described in USP <601>. Because the Spinhaler® is a low resistance device, it is difficult to achieve a pressure drop of 4 kPa, an adjustment of the air flow rate at the intake of the flow control was performed, as discussed above. Each impaction plate was coated with silicone grease (316 Dow Corning) to prevent particles from bouncing off the plates and returning to the air stream. All stages were used since the test flow rate was less than 60 L/min. All pieces of the impaction including the inhaler and capsule were rinsed with solvent, diluted to suitable volumes, sonicated, centrifuged and assayed using the UV-VIS spectrophotometer. The respirable portion was quantified by the in vitro fine particle fraction and fine particle mass. Dose uniformity and cascade impaction tests were carried out at controlled temperature (20-25° C.) and humidity (50% RH). […]
Aerodynamic size distribution was performed according to USP Chapter <601> by using ACI Apparatus 3 with the Spinhaler® device analogous to that described in section Aerodynamic Particle Size Distribution for Example 1. However, the HPLC was used to analyze the content of the drugs as described in the Blend Uniformity in this example.
Aerodynamic size distribution was performed according to USP Chapter <601> by using ACI Apparatus 3 with the Spinhaler® device in a manner analogous to that described in section Aerodynamic Particle Size Distribution in Example 4. The content of the drugs were analyzed as described in the Blend Uniformity in this example.

[4] = Moisture and light sensitivity
[5] = Example 4 blend, flow 61.5 L/min for 3.9 sec
[6] = Example 4 blend, flow 62.3 L/min for 3.9 sec
[7] = Example 4 blend, flow 62.8 L/min for 3.8 sec
[8] = Example 4 blend, blend with mometasone furoate
[9] = Example 5 blend, blend with ciclesonide

CC(C)(O)c1ccccc1CC[C@@H](SCC1(CC(=O)O)CC1)c1cccc(/C=C/c2ccc3ccc(Cl)cc3n2)c1 [Montelukast Acid, montelukast acid]
Amount Recovered (μg/Capsule) ([1]; Example 4 blend (montelukast acid 4%, mometasone furoate 1.6%)): 940.4 µg and 907.0 µg and 953.9 µg | Amount Recovered (μg/Capsule) ([1]; Example 4 blend (montelukast acid 4%, mometasone furoate 1.6%), mean): 933.8 ± 2.6 µg | Amount Recovered, % ([1]; Example 4 blend): 91.4% and 93.0% and 93.9% | Amount Recovered, % ([1]; Example 4 blend, mean): 92.8 ± 1.4% | Amount Recovered (μg/Capsule) ([1]; Example 5 blend (montelukast acid 4%, ciclesonide 0.64%)): 943.3 µg and 928.8 µg and 997.5 µg | Amount Recovered (μg/Capsule) ([1]; Example 5 blend (montelukast acid 4%, ciclesonide 0.64%), mean of three capsules): 956.6 ± 3.4 µg | Amount Recovered, % ([1]; Example 5 blend): 94.3% and 92.9% and 99.8% | Amount Recovered, % ([1]; Example 5 blend, mean of three capsules): 95.7 ± 3.4% | DU based on nominal dose, % (Device + Capsule) ([2]; Example 4 blend): *46.6% | DU based on nominal dose, % (printed in Adapter + Filter column) ([2]; Example 4 blend): 49.3% | DU based on total recovered, % (Device + Capsule) ([2]; Example 4 blend): **48.6% | DU based on total recovered, % (printed in Adapter + Filter column) ([2]; Example 4 blend): 51.4% | Total recovered [2, 5]: 952.06 µg and 949.00 µg and 958.48 µg | Total recovered [2, 6]: 983.22 µg and 979.15 µg | Total recovered [2, 7]: 937.91 µg and 949.52 µg | amount in Device + Capsule [2, 5]: 465.70 µg and 463.98 µg and 465.53 µg | amount in Device + Capsule [2, 6]: 462.40 µg and 459.39 µg | amount in Device + Capsule [2, 7]: 468.24 µg and 473.48 µg | DU based on nominal dose, % (Device + Capsule) ([2]; Example 5 blend): *44.5% | DU based on nominal dose, % (printed in Adapter + Filter column) ([2]; Example 5 blend): 47.8% | DU based on total recovered, % (Device + Capsule) ([2]; Example 5 blend): **48.2% | DU based on total recovered, % (printed in Adapter + Filter column) ([2]; Example 5 blend): 51.8% | FPF ([3]; Example 4 blend): 29% | FPD [3, 8]: 126.1 µg and 145.7 µg and 118.7 µg | FPF [3, 8]: 28.6% and 28.4% and 29.9% | GSD [3, 8]: 2.1 and 1.4 | Total recovered [3, 8]: 953 µg and 962 µg and 921 µg | amount in inhaler [3, 8]: 512 µg and 450 µg and 524 µg | MMAD ([3]; Example 4 blend): 4.5 μm | MMAD [3, 8]: 4.6 μm and 4.4 μm | MMAD ([3]; Example 4 blend, mean): 4.5 μm | amount in ACI [3, 8]: 441 µg and 513 µg and 397 µg | amount in ACI ([3]; Example 4 blend, mean): 450 µg | FPD ([3]; Example 4 blend, mean): 130.2 µg | FPF ([3]; Example 4 blend, mean): 29.0% | GSD ([3]; Example 4 blend, mean): 1.6 | Total recovered ([3]; Example 4 blend, mean): 945 µg | amount in inhaler ([3]; Example 4 blend, mean): 495 µg | FPF ([3]; Example 5 blend): 38% | FPD [3, 9]: 161.8 µg and 190.6 µg and 179.0 µg | FPF [3, 9]: 35.2% and 40.7% | GSD [3, 9]: 1.5 and 2.0 | Total recovered [3, 9]: 990 µg and 882 µg and 904 µg | amount in inhaler [3, 9]: 530 µg and 413 µg and 431 µg | MMAD ([3]; Example 5 blend): 3.9 μm | MMAD [3, 9]: 3.9 μm and 4.0 μm and 3.8 μm | amount in ACI [3, 9]: 459 µg and 468 µg and 472 µg | amount in ACI ([3]; Example 5 blend, mean): 467 µg | FPD ([3]; Example 5 blend, mean): 177.1 µg | FPF ([3]; Example 5 blend, mean): 37.9% | GSD ([3]; Example 5 blend, mean): 1.7 | Total recovered ([3]; Example 5 blend, mean): 925 µg | amount in inhaler ([3]; Example 5 blend, mean): 458 µg | moisture and light sensitivity [4]: moisture sensitive and photosensitive
